# Source: patent publication US5389661A, “Imidazole and 1,2,4-triazole derivatives with angiotensin II antagonist properties” (Warner-Lambert Company, priority 1994, dated 1995)
# Molecular target: T1, angiotensin II receptor (rat liver membranes) (Rattus norvegicus, UniProt P25095)
# T1 construct: from tissue; host or cells: rat liver membranes
# T1 sequence (P25095 1-359): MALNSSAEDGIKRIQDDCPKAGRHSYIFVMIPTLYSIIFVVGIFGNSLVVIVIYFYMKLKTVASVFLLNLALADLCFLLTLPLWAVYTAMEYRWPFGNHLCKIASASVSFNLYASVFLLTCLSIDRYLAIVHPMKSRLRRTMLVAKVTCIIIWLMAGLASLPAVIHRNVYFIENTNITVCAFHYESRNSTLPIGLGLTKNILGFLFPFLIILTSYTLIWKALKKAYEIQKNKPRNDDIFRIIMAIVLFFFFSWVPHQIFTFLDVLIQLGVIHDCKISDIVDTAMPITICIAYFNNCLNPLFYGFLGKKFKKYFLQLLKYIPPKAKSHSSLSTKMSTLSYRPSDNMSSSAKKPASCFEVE
# Test: RBAT1, Receptor Binding of Angiotensin II: inhibition of tritiated angiotensin II binding to rat liver membranes
# Settings: in vitro
# Method: The effectiveness of the compounds of the instant invention is determined by a test (RBAT1) entitled Receptor Binding of Angiotensin II.
row,IC50,SMILES
1,12 nM,"CCCCc1ncc(C=C2C(=O)N(CC(=O)OCC)c3ccccc32)n1Cc1ccc(-c2nnn[nH]2)cc1 [Example 6A, 1H-Indole-1-acetic acid, 3-[[2-butyl-1-[[4-(1H-tetrazol-5-yl)phenyl]methyl]-1H-imidazol-5yl]methylene]-2,3-dihydro-2-oxo-, ethyl ester]"
2,686 nM,"CCCc1ncc(/C=C2\C(=O)N(CC(=O)OC)c3cccc(C)c32)n1Cc1ccc(C(=O)OC)cc1 [Example 4J, Methyl (Z)-2,3-dihydro-3-[[3-[[4-methoxycarbonylphenyl]methyl]-2-propyl-3H-imidazol-4-yl]methylene]-4-methyl-2-oxo-1H-indole-1-acetate]"
3,640 nM,"CCCc1nc(-n2cccc2)c(/C=C2/C(=O)N(C)c3ccccc32)n1Cc1ccc(C(=O)OC)cc1 [Example 4A, Benzoic acid, 4-[[5-[(2,3-dihydro-1-methyl-2-oxo-1H-indol-3-ylidene)methyl]-2-propyl-4-(1H-pyrrol-1-yl)-1H-imidazol-1-yl]methyl]-, methyl ester, (E)]"
4,226 nM,"CCCCc1ncc(C=C2C(=O)N(CC#N)c3ccccc32)n1Cc1ccc(C(=O)OC)cc1 [Example 4H, Benzoic acid, 4-[[2-butyl-5-[[1-(cyanomethyl)-2,3-dihydro-2-oxo-1H-indol-3-ylidene]methyl]-1H-imidazol-1-yl]methyl]-, methyl ester, (E)]"
5,300 nM,"CCCc1ncc(/C=C2\C(=O)N(C(CCC)C(=O)OCC)c3cccc(C)c32)n1Cc1ccc(C(=O)OC)cc1 (racemic) [Example 4I, Ethyl (Z)-(±)-2,3,dihydro-3-[[3-[[4-(methoxycarbonylphenyl]methyl]-2-propyl-3H-imidazol-4-yl]methylene]-4-methyl-2-oxo-α-propyl-1H-indole-1-acetat]"
6,95 nM,"CCCc1nc(-n2cccc2)c(/C=C2/C(=O)N(CC(=O)OC)c3ccccc32)n1Cc1ccc(C(=O)OC)cc1 [Example 4B, 1H-Indole-1-acetic acid, 2,3-dihydro-3-[[1-[[4-(methoxycarbonyl)phenyl]methyl]-2-propyl-4-(1H-pyrrol-1-yl)-1H-imidazol-5-yl]methylene]-2-oxo-, methyl ester, (E)]"
7,256 nM,"CCCCc1ncc(/C=C2/C(=O)N(Cc3ccc(Cl)cc3)c3ccccc32)n1Cc1ccc(C(=O)O)cc1 [Example 4F, Benzoic acid, 4-[[2-butyl-5-[[1-[(4-chlorophenyl)methyl]-2,3-dihydro-2-oxo-1H-indol-3-ylidene]methyl]-1H-imidazol-1-yl]methyl]-, (E)]"
8,358 nM,"CCCCc1ncc(C=C2C(=O)N(CCCC)c3ccccc32)n1Cc1ccc(C(=O)OC)cc1 [Example 4C, Benzoic acid, 4-[[2-butyl-5-[(1-butyl-2,3-dihydro-2-oxo-1H-indol-3-ylidene)methyl]-1H-imidazol-1-yl]methyl]-, methyl ester]"
9,64 nM,CCCCc1ncc(C=C2C(=O)N(OCC(=O)OC)c3ccccc32)n1Cc1ccc(C(=O)OC)cc1 [Example 4G]
10,110 nM,"CCCCc1ncc(C=C2C(=O)N(CCCC)c3ccccc32)n1Cc1ccc(C(=O)OC)cc1Cl [Example 4K, Methyl 4-[[2-butyl-5-[(1-butyl-1,2-dihydro-2-oxo-3H-indol-3-yliden)methyl]-1H-imidazolyl]methyl]-3-chlorobenzoate]"

# The next lines start with the compound.
row,SMILES,IC50
1,"CCCc1ncc(/C=C2\C(=O)N(CC(=O)OC)C(=O)c3ccccc32)n1Cc1ccc(C(=O)OC)cc1 [Example 8, 2(1H)-Isoquinolineacetic acid, 3,4-dihydro-4-[[1-[[4-(methoxycarbonyl)phenyl]methyl]-2-propyl-1H-imidazol-5-yl]methylene]-1,3-dioxo-, methyl ester, (Z)]",47 nM
2,"CCCCc1ncc(C=C2C(=O)N(CC(=O)O)c3ccccc32)n1Cc1ccc(C(=O)O)cc1 [Example 3C, 3-[[2-Butyl-1-[(4-carboxyphenyl)methyl]-1H-imidazol-5-yl]methylene]-2,3-dihydro-2-oxo-1H-indole-1-acetic acid]",22 nM
3,"CCCc1ncc(/C=C2\C(=O)N(C(C)C)c3ccccc32)n1Cc1ccc(C(=O)OC)cc1 [Example 2F, Benzoic acid, 4-[[5-[[2,3-dihydro-1-(1-methylethyl)-2-oxo-1H-indol-3-ylidene]methyl]. -2-propyl-1H-imidazol-1-yl]methyl]-, methyl ester, (Z)]",67 nM
4,"CCCc1ncc(C=C2C(=O)N(CCC)c3ccccc32)n1Cc1ccc(C(=O)OC)cc1 [Example 2G, Methyl 4-[[5-[(1,2-dihydro-2-oxo-1-propyl-3H-indol-3-ylidenyl)methyl]-2-propyl-1H-imidazol-1-yl]methyl]benzoate]",746 nM
5,"CCCCc1ncc(C=C2C(=O)Nc3ccccc32)n1Cc1ccc(C(=O)O)cc1 [Example 3, 4-[[2-Butyl-5-[(1,12-dihydro-2-oxo-3H-indol-3-ylidene)methyl]-1H-imidazol-1-yl]methyl]benzoic acid]",170 nM
6,"CCCCN1C(=O)/C(=C/c2c(-n3cccc3)nc(CCC)n2Cc2ccc(C(=O)OC)cc2)c2ccccc21 [Example 4, Benzoic acid, 4-[[5-[(1-butyl-2,3-dihydro-2-oxo-1H-indol-3-ylidene)methyl]-2=propyl-4=(1H-pyrrol-1-yl)-1H-imidazol-1-yl]methyl]-, methyl ester, (E)]",590 nM
7,"CCCc1ncc(C=C2C(=O)N(CCC)c3ccccc32)n1Cc1ccc(C(=O)O)cc1 [Example 3I, 4-[[5-[(1,2-dihydro-2-oxo-1-propyl-3H-indol-3-ylidenyl)methyl]-2-propyl-1H-imidazol-1-yl]methyl]benzoic acid]",140 nM
8,"CCCCc1ncc(C=C2C(=O)N(CCCC)c3ccccc32)n1Cc1ccc(C(=O)O)cc1Cl [Example 3H, 4-[[2-butyl-5-[(1-butyl-1,2-dihydro-2-oxo-3H-indol-3-ylidenyl)methyl]-1H-imidazol-1-yl]methyl]-3 chlorobenzoic acid]",52 nM
9,"CCCc1nc(-n2cccc2)c(/C=C2/C(=O)Nc3ccccc32)n1Cc1ccc(C(=O)O)cc1 [Example 2D, (E)-4-[[5-[(1,2-dihydro-2-oxo-3H-indol-3-ylideny)methyl]-2-propyl-4-(1H-pyrrol-1-yl)-1H-imidazol-1-yl]methyl]benzoic acid]",86 nM
10,"CCCCc1ncc(C=C2C(=O)N(CC(=O)O)c3ccccc32)n1Cc1ccc(-c2nnn[nH]2)cc1 [Example 7, 3-[[2-butyl-3-[[4-(1H-tetrazol-5-yl)phenyl]methyl]-3H-imidazol-4-yl]methylene]-2,3-dihydro-2-oxo-1H-indole-1-acetic acid]",5.7 nM
11,"CCCc1ncc(/C=C2/C(=O)N(CC(=O)O)c3ccccc32)n1Cc1ccc(C(=O)O)cc1 [Example 9, (E)-3-[[3-[(4-carboxyphenyl)methyl]-2-propyl-3H-imidazol-4-yl]methylene]-2,3-dihydro-2-oxo-1H-indole-1-acetic acid]",98 nM
12,"CCCCc1ncc(C=C2C(=O)N(Cc3nn[nH]n3)c3ccccc32)n1Cc1ccc(C(=O)OC)cc1 [Example 5, Benzoic acid, 4-[[2-butyl-5-[[2,3-dihydro-2-oxo-1-(1H-tetrazol-5-ylmethyl)-1H-indol-3-ylidene]methyl]-1H-imidazol-1-yl]methyl]-, methyl ester, (E)]",94 nM
13,"CCCCc1ncc(C=C2C(=O)Nc3c(OC)cccc32)n1Cc1ccc(C(=O)O)cc1 [Example 3B, 4-[[2-Butyl-5-[(1,2-dihydro-7-methoxy-2-oxo-3H-indol-3-ylidene)methyl]-1H-imidazol-1-yl]methyl]benzoic acid]",120 nM
14,"CCCCc1ncc(C=C2C(=O)N(CC(=O)OC)c3ccccc32)n1Cc1ccc(-c2nn[nH]n2)cc1 [Example 6, 1H-Indole-1-acetic acid, 3-[[2-butyl-1-[[4-(1H-tetrazol-5-yl)phenyl]methyl]-1H-imidazol-5yl]methylene]-2,3-dihydro-2-oxo-, methyl ester]",25 nM
15,CCCCc1ncc(C=C2C(=O)N(O)c3ccccc32)n1Cc1ccc(C(=O)O)cc1 [Example 3F],123 nM
16,"CCCCc1ncc(/C=C2/C(=O)N(CCC(=O)O)c3ccccc32)n1Cc1ccc(C(=O)O)cc1 [Example 3G, 1H-Indole-1-propanoic acid, 3-[[2-butyl-1-[(4-carboxyphenyl)methyl]-1H-imidazol-5-yl]methylene]-2,3-dihydro-2-oxo -, (E)]",20 nM
17,CCCCc1ncc(C=C2C(=O)N(O)c3ccccc32)n1Cc1ccc(C(=O)OC)cc1 [Example 2C],201 nM
18,"CCCc1ncc(C=C2C(=O)N(C)c3ccccc32)n1Cc1ccc(C(=O)OC)cc1 [Example 1D, Methyl 4-[[2-propyl-5-[(1,2-dihydro-1-methyl-2-oxo-3H-indol-3-ylidene)methyl]-1H-imidazol-1-yl]methyl]benzoate]",75 nM
19,"CCCc1ncc(C=C2C(=O)N(C(=O)NC)c3ccccc32)n1Cc1ccc(C(=O)OC)cc1 [Example 2B, Methyl 4-[[(2-propyl-5-[1,2-dihydro-1-(methylaminocarbonyl)-2-oxo-3H-indol-3-ylidene]methyl]-1H-imidazol-1-yl]methyl benzoate]",610 nM
20,"CCCCc1nc(Cl)c(/C=C2/C(=O)Nc3ccccc32)n1Cc1ccc(C(=O)O)cc1 [Example 3A, (E)-4-[[2-Butyl-4-chloro-5-[(1,2-dihydro-2-oxo-3H-indol-3-ylidene)]-1H-imidazol-1-yl]methyl]benzoic acid]",140 nM
21,"CCCCc1ncc(CC2C(=O)Nc3ccccc32)n1Cc1ccc(C(=O)OC)cc1 (racemic) [Example 10, Benzoic acid, 4-[[2-butyl-5-[(2,3-dihydro-2-oxo-1H-indol-3-yl)methyl]-1H-imidazol-1-yl]methyl]-, methyl ester, (±)]",53 nM
